Results as given in patent publication US7084144B2, “Sulfonyl group containing compounds and their use for the treatment of erectile dysfunction” (The Jordanian Pharmaceutical MFG & Medical Equipment CO LTD, priority 2000, dated 2006).
“Also recorded” adds a separate entry of the source.

Tests used:
male rats = assay: Penile erection (responding rats, PEI, ED50) in male rats after oral administration; format: in vivo, rat; conditions: for PEI (penile erection indexes) for selected molecules: Tables 4-6, dose not given; for PEI (penile erection index) / responding rats % / Calculated ED50: male rats, oral; for PEI (penile erection index) / responding rats %: 10 rats used, 2 hours observation; for Calculated ED50: responding rats as a function of dose
Description: The purpose of the study was to compare the biological activity of compound 1 of the present invention with that of sildenafil. In particular, the respective ED50 value (ED=effective dose), erection episodes and penile erection indexes of said compounds in the treatment of male rats were determined. The penile erection index is an established means of determining the erection promoting properties of a substance (see e.g. Benassi-Benelli, F., Ferari, F., and Pellegrini Quaratotti, B., Arch. Int. Pharmacodyn., 242, 241–247, (1979), and Ang. H. H., Sim, M. K., Pharm. Sci., 3, 17–119, (1997) and references cited therein).
In these experiments, compound 1 of the present invention and sildenafil were administered to male rats orally. The doses for sildenafil were 0.0781, 0.1562, 0.3125 and 0.625 mg/kg body weight, while doses for compound 1 of the present invention were 0.3, 0.6, 1, and 2 mg/kg body weight. Both sildenafil and compound 1 of the present invention were dissolved in distilled water. Control animals were administered with water. During the experiments, the rats were placed in glass cages for observation and had free access to food and water. During 2 hours after administration of the investigated compound, the penile erection and self-sucking were monitored.

[1] = tested on: cGMP accumulation in isolated rabbit corpus carvenosum tissue; assay: cGMP accumulation in isolated rabbit corpus carvenosum tissue (ELISA), with and without NO donor SNP; format: cell-based, White New Zealand rabbits; conditions: FIG. 1; for effect on the levels of cGMP: absence of NO donor, tested concentrations up to 100,000 nM
Description: (§1) Method for Analysis of cGMP & cAMP Synthesis and Accumulation in Penile Tissues: White New Zealand rabbits were sacrificed. Excise the penises rapidly after killing the animals, remove epidermal & connective tissue. Dissect out and discard the urethra carefully. Cut the penises longitudinally into 2 equal strips and then laterally to give about 20–40 segments. Pool and incubate the segments of the corpus cavernosum in Dulbecco's minimum essential Medium (MEM) at room temperature for one hour to allow the tissues to recover from preparative handling. Effect of Drug on cGMP and cAMP Formation:
(§2) Place one penile segment in triplicate for each drug dose in 200 μl MEM. Place one penile segment in triplicate for each drug dose with 10 μM SNP (sodium nitroprusside) in 200 μl MEM. (in the case of cGMP). Incubate the tubes at 37° C. for 30 min, stop the reaction by adding 200 μl of 1 mol/l perchloric acid and sonicate for 5 min. Neutralize the aliquots with 0.5 mol/l K3PO4.3H2O to pH 6.2 (240 μl), centrifuge and take the supernatant in aliquots. Keep at 4° C. and assay for the concentrations of cAMP and cGMP in the extract using ELISA (enzyme linked immunosorbant assay). Preparation of Zero sample: Add 200 ul MEM, 200 ul 1M perchloric acid and 240 μl 0.5 mol/L K3PO4.3H2O in one tube.
(§3) The main concentrations were in the range 0–20,000 or 100,000 nM. A stock solution of 1 mM for both drugs were prepared in distilled water. Serial dilution were prepared in MEM giving working drug concentrations of 0, 1000, 4000, 8000, 10000, 20000 and 100000 nM. In the case of cGMP the tests were carried out with and without NO donor (SNP). For this purpose 10 μM SNP was included when necessary.

[2] = tested on: cAMP accumulation in isolated rabbit corpus carvenosum tissue; assay: cAMP accumulation in isolated rabbit corpus carvenosum tissue (ELISA); format: cell-based, White New Zealand rabbits; conditions: absence of NO donor, FIG. 2; for effect on the accumulation of cAMP levels: up to 20,000 nM
Description: as §1, §2, §3

CN1CCN(S(=O)(=O)c2ccc3c(c2)OCO3)CC1 [Compound 1]
PEI (penile erection indexes) for selected molecules (male rats): 1015 | PEI (penile erection index) (male rats; dose 0.3 mg/kg): 22.5 | responding rats % (male rats; dose 0.3 mg/kg): 15% | PEI (penile erection index) (male rats; dose 0.6 mg/kg): 260 | responding rats % (male rats; dose 0.6 mg/kg): 40% | PEI (penile erection index) (male rats; dose 1.0 mg/kg): 665 | responding rats % (male rats; dose 1.0 mg/kg): 70% | PEI (penile erection index) (male rats; dose 2.0 mg/kg): 1020 | responding rats % (male rats; dose 2.0 mg/kg): 85% | Calculated ED50 (male rats): ^(3)Calculated ED50 = 0.7822 mg/kg body weight | concentration giving maximum increase of cGMP levels ([1]; NO donor added (10 μM SNP)): about 4000 nM | effect on cGMP accumulation compared with sildenafil ([1]; NO donor added (10 μM SNP), at 10,000 nM): better effect than sildenafil | effect on the levels of cGMP [1]: very little effect; also recorded: weak effect | effect on the accumulation of cAMP levels [2]: no effect at all | melting point: 137 to 138 °C

Cc1ccc(S(=O)(=O)N2CCN(C)CC2)cc1 [R0=—CH3; R1=—CH3 (Table 4)]
PEI (penile erection indexes) for selected molecules (male rats): 240

Cc1ccc(S(=O)(=O)NN2CCN(C)CC2)cc1 [R0=—CH3; R1=—CH3; n=0 (Table 6)]
PEI (penile erection indexes) for selected molecules (male rats): 90

CN1CCN(S(=O)(=O)c2ccccc2)CC1 [R0=—CH3; R1=—H (Table 4)]
PEI (penile erection indexes) for selected molecules (male rats): 420

CN1CCN(NS(=O)(=O)c2ccccc2)CC1 [R0=—CH3; R1=—H; n=0 (Table 6)]
PEI (penile erection indexes) for selected molecules (male rats): 80

CCCc1nn(C)c2c(=O)[nH]c(-c3cc(S(=O)(=O)N4CCN(C)CC4)ccc3OCC)nc12 [Sildenafil, sildenafil, reference compound]
PEI (penile erection index) (male rats; dose 0.0781 mg/kg): 90 | responding rats % (male rats; dose 0.0781 mg/kg): 30% | PEI (penile erection index) (male rats; dose 0.1562 mg/kg): 150 | responding rats % (male rats; dose 0.1562 mg/kg): 30% | PEI (penile erection index) (male rats; dose 0.3125 mg/kg): 350 | responding rats % (male rats; dose 0.3125 mg/kg): 50% | PEI (penile erection index) (male rats; dose 0.625 mg/kg): 980 | responding rats % (male rats; dose 0.625 mg/kg): 70% | Calculated ED50 (male rats): ^(2)Calculated ED50 = 0.2473 mg/kg body weight | concentration giving maximum increase of cGMP levels ([1]; NO donor added (10 μM SNP)): about 10,000 nM | effect on the levels of cGMP [1]: very little effect; also recorded: almost flat effect | concentration giving maximum increase in cAMP levels [2]: 8000–10,000 nM | effect on the accumulation of cAMP levels [2]: remarkable increase
